How the values were obtained:
Format in all cases: biochemical
cathepsin S = biological target: T1, cathepsin S (Homo sapiens, UniProt P25774); assay: Cathepsin S enzyme inhibition in vitro (kinetic fluorescence assay); conditions: Ki(cathepsin S)/Ki(calpain) ratio
T1 construct: purchased Calbiochem 219343; host or cells: E. coli
In short: (§1)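 Kinetic fluorescence (ex 390/em 460 nm), RT. Calpain-I: 20 nM erythrocyte-derived, 100 μM Suc-Leu-Tyr-AMC, imidazole/CaCl2, pH 7.3. Cathepsins, pH 6.0 MES/EDTA/cysteine: B 0.25 nM liver, 100 μM Z-Phe-Arg-AMC; L 1 nM liver, 2 μM Z-Phe-Arg-AMC; S 0.5 nM recombinant, 20 μM Z-Val-Val-Arg-AMC. Cheng-Prusoff Ki, mean of 2–4 curves.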

cathepsin B = biological target: T2, cathepsin B (Homo sapiens, UniProt P07858); assay: Cathepsin B enzyme inhibition in vitro (kinetic fluorescence assay); conditions: Ki(cathepsin B)/Ki(calpain) ratio
T2 construct: cathepsin B—isolated from human liver; purchased Calbiochem 219362; host or cells: human liver (tissue isolate)
Protocol: (§2) Testing for blockade of the corresponding enzymic activities was carried out by means of kinetic fluorescence assays (excitation 390 nm, emission 460 nm).
(§3) Apparent Ki values were calculated from the experimentally determined IC50 values by the Cheng-Prussoff relation assuming a reversible competitive enzyme inhibition. The Km values of the substrates used under the assay conditions indicated above were: 90 μM (Z-Phe-Arg-AMC, cathepsin B), 10 μM (Z-Gly-Pro-Arg-AMC, cathepsin K), 2 μM (Z-Phe-Arg-AMC, cathepsin L), and 30 μM (Z-Val-Val-Arg-AMC, cathepsin S).
(§4) The indicated Ki values are averages of the inhibition constants calculated on the basis of 2 to 4 independent dose-effect plots.
(§5) • 1. Calpain I: • 20 nM calpain-I—isolated from human erythrocytes (Calbiochem #208713), 100 μM Suc-Leu-Tyr-AMC (Bachem #1-1355) as substrate in buffer with 62 mM imidazole, 0.3 mM CaCl2, 0.10% CHAPS, 0.05% BSA, 1 mM DTT at pH 7.3 and room temperature. • 2. Cathepsin B: • 0.25 nM cathepsin B—isolated from human liver (Calbiochem #219362), 100 μM Z-Phe-Arg-AMC (Bachem #1-1160) as substrate 50 mM MES, 2 mM EDTA, 0.05% Brij 35, 2.5 mM L-cysteine, pH 6.0, room temperature. • 3. Cathepsin K: • 3 nM cathepsin K—activated from recombinant human procathepsin K from E. coli (Calbiochem #342001), 10 μM Z-Gly-Pro-Arg-AMC (Biomol #P-142) as substrate in 50 mM MES, 2 mM EDTA, 0.05% Brij 35, 2.5 mM L-cysteine, pH 6.0, room temperature. • 4. Cathepsin L: • 1 nM cathepsin L—isolated from human liver (Calbiochem #219402), 2 μM Z-Phe-Arg-AMC (Bachem #1-1160) as substrate in 50 mM MES, 2 mM EDTA, 0.05% Brij 35, 2.5 mM L-cysteine, pH 6.0, room temperature. • 5. Cathepsin S: • 0.5 nM recombinant human cathepsin S from E. coli (Calbiochem #219343), 20 μM Z-Val-Val-Arg-AMC (Bachem #1-1540) as substrate in 50 mM MES, 2 mM EDTA, 0.05% Brij 35, 2.5 mM L-cysteine, pH 6.0, room temperature.

cathepsin K = biological target: T3, cathepsin K (Homo sapiens, UniProt P43235); assay: Cathepsin K enzyme inhibition in vitro (kinetic fluorescence assay); conditions: Ki(cathepsin K)/Ki(calpain) ratio
T3 construct: purchased Calbiochem 342001; host or cells: E. coli
T3 sequence (P43235 115-329): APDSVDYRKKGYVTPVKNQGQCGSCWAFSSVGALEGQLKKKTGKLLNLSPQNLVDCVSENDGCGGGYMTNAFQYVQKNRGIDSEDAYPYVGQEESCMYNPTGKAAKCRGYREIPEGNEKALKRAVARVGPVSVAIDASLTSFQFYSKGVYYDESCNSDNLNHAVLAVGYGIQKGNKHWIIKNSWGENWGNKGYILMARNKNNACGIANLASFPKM
Protocol: as §2, §3, §4, §5

cathepsin L = biological target: T4, cathepsin L (Homo sapiens, UniProt P07711); assay: Cathepsin L enzyme inhibition in vitro (kinetic fluorescence assay); conditions: Ki(cathepsin L)/Ki(calpain) ratio
T4 construct: cathepsin L—isolated from human liver; purchased Calbiochem 219402; host or cells: human liver (tissue isolate)
T4 sequence (P07711 114-333): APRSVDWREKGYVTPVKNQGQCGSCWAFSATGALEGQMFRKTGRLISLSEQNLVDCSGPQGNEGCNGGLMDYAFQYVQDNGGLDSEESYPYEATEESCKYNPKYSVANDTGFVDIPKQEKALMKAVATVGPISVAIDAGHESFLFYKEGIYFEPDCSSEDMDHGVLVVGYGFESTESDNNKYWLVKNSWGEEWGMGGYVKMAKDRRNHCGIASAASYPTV
In short: as §1

T1 sequence (P25774 115-331): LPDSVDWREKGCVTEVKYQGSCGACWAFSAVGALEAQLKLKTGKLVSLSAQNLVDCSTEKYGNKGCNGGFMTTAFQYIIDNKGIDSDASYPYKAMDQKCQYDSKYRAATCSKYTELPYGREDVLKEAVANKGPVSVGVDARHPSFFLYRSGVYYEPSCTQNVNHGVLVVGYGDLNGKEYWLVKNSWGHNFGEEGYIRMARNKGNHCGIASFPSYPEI

Row | Compound | Sel cat. S (cathepsin S) | Sel cat. B (cathepsin B) | Sel cat. K (cathepsin K) | Sel cat. L (cathepsin L)
1 | NC(=O)C(=O)C(Cc1ccccc1)NC(=O)c1cccnc1-n1ccc(-c2ccccc2)n1 (centres unmarked) [Example 5, N-(3-Amino-1-benzyl-2,3-dioxopropyl)-2-(3-phenyl-1H-pyrazol-1-yl)nicotinamide] | ++ (++ means a Ki(cathepsin S)/Ki(calpain) ratio of ≧100) | + (+ means 10≦Ki(cathepsin B)/Ki(calpain)<30) | + (+ means 10≦Ki(cathepsin K)/Ki(calpain)<30) | ++ (++ means a Ki(cathepsin L)/Ki(calpain) ratio of ≧50)
2 | NC(=O)C(=O)C(Cc1ccccc1)NC(=O)c1cccnc1-n1ccc(-c2ccccn2)n1 (centres unmarked) [Example 35, N-(3-Amino-1-benzyl-2,3-dioxopropyl)-2-(3-pyridin-2-yl-1H-pyrazol-1-yl)nicotinamide] | ++ (++ means a Ki(cathepsin S)/Ki(calpain) ratio of ≧100) | + (+ means 10≦Ki(cathepsin B)/Ki(calpain)<30) | + (+ means 10≦Ki(cathepsin K)/Ki(calpain)<30) | ++ (++ means a Ki(cathepsin L)/Ki(calpain) ratio of ≧50)
3 | NC(=O)C(=O)C(Cc1ccccc1)NC(=O)c1cccnc1-n1ccc(-c2ccc(F)cc2)n1 (centres unmarked) [Example 38, N-(3-Amino-1-benzyl-2,3-dioxopropyl)-2-[3-(4-fluorophenyl)-1H-pyrazol-1-yl]nicotinamide] | ++ (++ means a Ki(cathepsin S)/Ki(calpain) ratio of ≧100) | + (+ means 10≦Ki(cathepsin B)/Ki(calpain)<30) | + (+ means 10≦Ki(cathepsin K)/Ki(calpain)<30) | ++ (++ means a Ki(cathepsin L)/Ki(calpain) ratio of ≧50)
4 | COc1ccc(-c2ccn(-c3ncccc3C(=O)NC(Cc3ccccc3)C(=O)C(N)=O)n2)cc1 (centres unmarked) [Example 48, N-(3-Amino-1-benzyl-2,3-dioxopropyl)-2-[3-(4-methoxyphenyl)-1H-pyrazol-1-yl]nicotinamide] | ++ (++ means a Ki(cathepsin S)/Ki(calpain) ratio of ≧100) | + (+ means 10≦Ki(cathepsin B)/Ki(calpain)<30) | + (+ means 10≦Ki(cathepsin K)/Ki(calpain)<30) | ++ (++ means a Ki(cathepsin L)/Ki(calpain) ratio of ≧50)
5 | NC(=O)C(=O)C(Cc1ccc(Cl)cc1)NC(=O)c1cccnc1-n1ccc(-c2ccccc2)n1 (centres unmarked) [Example 50, N-[3-Amino-1-(4-chlorobenzyl)-2,3-dioxopropyl]-2-(3-phenyl-1H-pyrazol-1-yl)nicotinamide] | + (+ means 50≦Ki(cathepsin S)/Ki(calpain)<100) | + (+ means 10≦Ki(cathepsin B)/Ki(calpain)<30) | + (+ means 10≦Ki(cathepsin K)/Ki(calpain)<30) | + (+ means 30≦Ki(cathepsin L)/Ki(calpain)<50)
6 | NC(=O)C(=O)C(Cc1ccccc1)NC(=O)c1cccnc1-n1ccc(-c2ccccc2Cl)n1 (centres unmarked) [Example 54, N-(3-Amino-1-benzyl-2,3-dioxopropyl)-2-[3-(2-chlorophenyl)-1H-pyrazol-1-yl]nicotinamide] | ++ (++ means a Ki(cathepsin S)/Ki(calpain) ratio of ≧100) | ++ (++ means a Ki(cathepsin B)/Ki(calpain) ratio of ≧30) | ++ (++ means a Ki(cathepsin K)/Ki(calpain) ratio of ≧30) | ++ (++ means a Ki(cathepsin L)/Ki(calpain) ratio of ≧50)
7 | NC(=O)C(=O)C(Cc1ccccc1)NC(=O)c1cccnc1-n1ccc(-c2cccs2)n1 (centres unmarked) [Example 55, N-(3-Amino-1-benzyl-2,3-dioxopropyl)-2-[3-(2-thienyl)-1H-pyrazol-1-yl]nicotinamide] | ++ (++ means a Ki(cathepsin S)/Ki(calpain) ratio of ≧100) | + (+ means 10≦Ki(cathepsin B)/Ki(calpain)<30) | + (+ means 10≦Ki(cathepsin K)/Ki(calpain)<30) | ++ (++ means a Ki(cathepsin L)/Ki(calpain) ratio of ≧50)
8 | NC(=O)C(=O)C(Cc1ccccc1)NC(=O)c1cccnc1-n1ccc(-c2cccc(N3CCOCC3)c2)n1 (centres unmarked) [Example 58, N-(3-Amino-1-benzyl-2,3-dioxopropyl)-2-[3-(3-morpholin-4-ylphenyl)-1H-pyrazol-1-yl]nicotinamide] | ++ (++ means a Ki(cathepsin S)/Ki(calpain) ratio of ≧100) | + (+ means 10≦Ki(cathepsin B)/Ki(calpain)<30) | + (+ means 10≦Ki(cathepsin K)/Ki(calpain)<30) | ++ (++ means a Ki(cathepsin L)/Ki(calpain) ratio of ≧50)
9 | NC(=O)C(=O)C(Cc1ccccc1)NC(=O)c1cccnc1-n1ccc(-c2ccc(C(F)(F)F)cc2)n1 (centres unmarked) [Example 60, N-(3-Amino-1-benzyl-2,3-dioxopropyl)-2-{3-[4-(trifluoromethyl)phenyl]-1H-pyrazol-1-yl}nicotinamide] | + (+ means 50≦Ki(cathepsin S)/Ki(calpain)<100) | + (+ means 10≦Ki(cathepsin B)/Ki(calpain)<30) | + (+ means 10≦Ki(cathepsin K)/Ki(calpain)<30) | ++ (++ means a Ki(cathepsin L)/Ki(calpain) ratio of ≧50)
10 | NC(=O)C(=O)C(Cc1ccccc1)NC(=O)c1cccnc1-n1cc2c(n1)-c1ccccc1CC2 (centres unmarked) [Example 63, N-(3-Amino-1-benzyl-2,3-dioxopropyl)-2-(4,5-dihydro-2H-benzo[g]indazol-2-yl)nicotinamide] | ++ (++ means a Ki(cathepsin S)/Ki(calpain) ratio of ≧100) | + (+ means 10≦Ki(cathepsin B)/Ki(calpain)<30) | + (+ means 10≦Ki(cathepsin K)/Ki(calpain)<30) | ++ (++ means a Ki(cathepsin L)/Ki(calpain) ratio of ≧50)
11 | NC(=O)C(=O)C(Cc1ccc(Cl)cc1)NC(=O)c1cccnc1-n1ccc(-c2ccc(F)cc2)n1 (centres unmarked) [Example 67, N-[3-Amino-1-(4-chlorobenzyl)-2,3-dioxopropyl]-2-[3-(4-fluorophenyl)-1H-pyrazol-1-yl]nicotinamide] | ++ (++ means a Ki(cathepsin S)/Ki(calpain) ratio of ≧100) | + (+ means 10≦Ki(cathepsin B)/Ki(calpain)<30) | + (+ means 10≦Ki(cathepsin K)/Ki(calpain)<30) | ++ (++ means a Ki(cathepsin L)/Ki(calpain) ratio of ≧50)
12 | NC(=O)C(=O)C(Cc1ccccc1)NC(=O)c1cccnc1-n1ccc(-c2ccc(N3CCCC3)cc2)n1 (centres unmarked) [Example 69, N-(3-Amino-1-benzyl-2,3-dioxopropyl)-2-[3-(4-pyrrolidin-1-ylphenyl)-1H-pyrazol-1-yl]nicotinamide] | ++ (++ means a Ki(cathepsin S)/Ki(calpain) ratio of ≧100) | + (+ means 10≦Ki(cathepsin B)/Ki(calpain)<30) | + (+ means 10≦Ki(cathepsin K)/Ki(calpain)<30) | ++ (++ means a Ki(cathepsin L)/Ki(calpain) ratio of ≧50)
13 | NC(=O)C(=O)C(Cc1ccccc1)NC(=O)c1cccnc1-n1ccc(-c2cccc(Cl)c2)n1 (centres unmarked) [Example 70, N-(3-Amino-1-benzyl-2,3-dioxopropyl)-2-[3-(3-chlorophenyl)-1H-pyrazol-1-yl]nicotinamide] | ++ (++ means a Ki(cathepsin S)/Ki(calpain) ratio of ≧100) | + (+ means 10≦Ki(cathepsin B)/Ki(calpain)<30) | + (+ means 10≦Ki(cathepsin K)/Ki(calpain)<30) | ++ (++ means a Ki(cathepsin L)/Ki(calpain) ratio of ≧50)
14 | NC(=O)C(=O)C(Cc1ccccc1)NC(=O)c1cccnc1-n1ccc(-c2ccc(F)cc2Cl)n1 (centres unmarked) [Example 71, N-(3-Amino-1-benzyl-2,3-dioxopropyl)-2-[3-(2-chloro-4-fluorophenyl)-1H-pyrazol-1-yl]nicotinamide] | ++ (++ means a Ki(cathepsin S)/Ki(calpain) ratio of ≧100) | ++ (++ means a Ki(cathepsin B)/Ki(calpain) ratio of ≧30) | ++ (++ means a Ki(cathepsin K)/Ki(calpain) ratio of ≧30) | ++ (++ means a Ki(cathepsin L)/Ki(calpain) ratio of ≧50)

From patent US9139557B2, “Carboxamide compounds and their use as calpain inhibitors” (Abbott GmbH & Co. KG, priority 2006, dated 2015)
